According to patent publication US20250230154A1, “COMPOUND HAVING SHP2 PROTEIN DEGRADING ACTIVITY, AND MEDICAL USES THEREOF” (UBIX THERAPEUTICS, INC., priority 2021, published 2025):

Target: T1, SHP2 protein (Homo sapiens, UniProt Q06124)
T1 sequence (Q06124 1-593): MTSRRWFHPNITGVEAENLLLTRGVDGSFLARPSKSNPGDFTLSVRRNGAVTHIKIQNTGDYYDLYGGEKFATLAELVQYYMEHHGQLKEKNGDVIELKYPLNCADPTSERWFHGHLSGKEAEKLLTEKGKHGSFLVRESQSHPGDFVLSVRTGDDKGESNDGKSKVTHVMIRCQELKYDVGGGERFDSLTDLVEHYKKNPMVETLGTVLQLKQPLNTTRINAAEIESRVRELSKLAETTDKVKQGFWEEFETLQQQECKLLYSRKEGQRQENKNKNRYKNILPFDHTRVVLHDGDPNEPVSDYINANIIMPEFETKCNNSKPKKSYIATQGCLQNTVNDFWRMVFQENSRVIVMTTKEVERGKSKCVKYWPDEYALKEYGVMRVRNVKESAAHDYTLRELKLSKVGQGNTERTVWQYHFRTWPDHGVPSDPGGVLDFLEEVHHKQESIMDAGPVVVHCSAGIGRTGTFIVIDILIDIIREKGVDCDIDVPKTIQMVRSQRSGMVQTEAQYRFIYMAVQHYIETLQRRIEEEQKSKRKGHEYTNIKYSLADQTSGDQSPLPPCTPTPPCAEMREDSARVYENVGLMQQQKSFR
Test: Measurement of SHP2 protein degradation in MV-4-11 cells (western blotting)
Type: cell-based
Design: endogenous in cells; host or cells: MV-4-11
Settings: MV-4-11 cells, 24 hours
In short: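 SHP2 protein levels were assessed by western blotting in MV-4-11 cells after a 24 hour compound treatment. Lysates were sonicated, centrifuged, normalized by BCA assay at 562 nm, run on Bis-tris 4-12% gels, transferred to NC membrane, probed with anti-SHPTP2 (70 kDa) and anti-GAPDH (37 kDa) antibodies, and detected on LI-COR Odyssey.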

| Compound | SHP2 degradation (%) 10 nM [%] | SHP2 degradation (%) 100 nM [%] |
| --- | --- | --- |
| Cc1ncsc1-c1ccc(CNC(=O)[C@@H]2C[C@@H](O)CN2C(=O)[C@@H](NC(=O)C2CC2)C(C)(C)C)c(OCCCN2CCN(CC(=O)Nc3cccc(Sc4cnc(N5CCC(C)(CN)CC5)cn4)c3Cl)C(=O)C2)c1 [Example 80, (2S,4R)—N-(2-(3-(4-(2-((3-((5-(4-(aminomethyl)-4-methylpiperidin-1-yl)pyrazin-2-yl)thio)-2-chlorophenyl)amino)-2-oxoethyl)-3-oxopiperazin-1-yl)propoxy)-4-(4-methylthiazol-5-yl)benzyl)-1-((S)-2-(cyclopropanecarboxamido)-3,3-dimethylbutanoyl)-4-hydroxypyrrolidine-2-carboxamide] | 83.1 | 98.2 |
| Cc1ncsc1-c1ccc(CNC(=O)[C@@H]2C[C@@H](O)CN2C(=O)[C@@H](NC(=O)C2(F)CC2)C(C)(C)C)c(OCCN2CCN(c3ccc(C(=O)Nc4cccc(Sc5cnc(N6CCC(C)(CN)CC6)cn5)c4Cl)nc3)CC2)c1 [Example 81, N-(3-((5-(4-(aminomethyl)-4-methylpiperidin-1-yl)pyrazin-2-yl)thio)-2-chlorophenyl)-5-(4-(2-(2-(((2S,4R)-1-((S)-2-(1-fluorocyclopropane-1-carboxamido)-3,3-dimethylbutanoyl)-4-hydroxypyrrolidine-2-carboxamido)methyl)-5-(4-methylthiazol-5-yl)phenoxy)ethyl)piperazin-1-yl)picolinamide] | 22.7 | 93.2 |
| Cc1ncsc1-c1ccc(CNC(=O)[C@@H]2C[C@@H](O)CN2C(=O)[C@@H](NC(=O)C2(F)CC2)C(C)(C)C)c(OCCN2CCN(c3cnc(C(=O)Nc4cccc(Sc5cnc(N6CCC(C)(CN)CC6)cn5)c4Cl)nc3)CC2)c1 [Example 83, N-(3-((5-(4-(aminomethyl)-4-methylpiperidin-1-yl)pyrazin-2-yl)thio)-2-chlorophenyl)-5-(4-(2-(2-(((2S,4R)-1-((S)-2-(1-fluorocyclopropane-1-carboxamido)-3,3-dimethylbutanoyl)-4-hydroxypyrrolidine-2-carboxamido)methyl)-5-(4-methylthiazol-5-yl)phenoxy)ethyl)piperazin-1-yl)pyrimidine-2-carboxamide] | 79.9 | 97.5 |
| Cc1ncsc1-c1ccc(CNC(=O)[C@@H]2C[C@@H](O)CN2C(=O)[C@@H](NC(=O)C2(F)CC2)C(C)(C)C)c(OCCN2CCN(c3nccc(C(=O)Nc4cccc(Sc5cnc(N6CCC(C)(CN)CC6)cn5)c4Cl)n3)CC2)c1 [Example 86, N-(3-((5-(4-(aminomethyl)-4-methylpiperidin-1-yl)pyrazin-2-yl)thio)-2-chlorophenyl)-2-(4-(2-(2-(((2S,4R)-1-((S)-2-(1-fluorocyclopropane-1-carboxamido)-3,3-dimethylbutanoyl)-4-hydroxypyrrolidine-2-carboxamido)methyl)-5-(4-methylthiazol-5-yl)phenoxy)ethyl)piperazin-1-yl)pyrimidine-4-carboxamide] | −29.2 | 23.8 |
| Cc1ncsc1-c1ccc(CNC(=O)[C@@H]2C[C@@H](O)CN2C(=O)[C@@H](NC(=O)C2(F)CC2)C(C)(C)C)c(OC2CC3(CCN(c4cnc(C(=O)Nc5cccc(Sc6cnc(N7CCC(C)(CN)CC7)cn6)c5Cl)nc4)CC3)C2)c1 [Example 87, N-(3-((5-(4-(aminomethyl)-4-methylpiperidin-1-yl)pyrazin-2-yl)thio)-2-chlorophenyl)-5-(2-(2-(((2S,4R)-1-((S)-2-(1-fluorocyclopropane-1-carboxamido)-3,3-dimethylbutanoyl)-4-hydroxypyrrolidine-2-carboxamido)methyl)-5-(4-methylthiazol-5-yl)phenoxy)-7-azaspiro[3.5]nonan-7-yl)pyrimidine-2-carboxamide] | 9.1 | 45.5 |
| Cc1ncsc1-c1ccc(CNC(=O)[C@@H]2C[C@@H](O)CN2C(=O)[C@@H](NC(=O)C2(F)CC2)C(C)(C)C)c(OC2CC3(CCN(c4ccc(C(=O)Nc5cccc(Sc6cnc(N7CCC(C)(CN)CC7)cn6)c5Cl)nn4)CC3)C2)c1 [Example 88, N-(3-((5-(4-(aminomethyl)-4-methylpiperidin-1-yl)pyrazin-2-yl)thio)-2-chlorophenyl)-6-(2-(2-(((2S,4R)-1-((S)-2-(1-fluorocyclopropane-1-carboxamido)-3,3-dimethylbutanoyl)-4-hydroxypyrrolidine-2-carboxamido)methyl)-5-(4-methylthiazol-5-yl)phenoxy)-7-azaspiro[3.5]nonan-7-yl)pyridazine-3-carboxamide] | 16.5 | 66.1 |

Other lines, results leading:

| SHP2 degradation (%) 10 nM [%] | SHP2 degradation (%) 100 nM [%] | Compound |
| --- | --- | --- |
| 16.2 | 96.2 | Cc1ncsc1-c1ccc(CNC(=O)[C@@H]2C[C@@H](O)CN2C(=O)[C@@H](NC(=O)C2(F)CC2)C(C)(C)C)c(OCCN2CCN(c3ccc(C(=O)Nc4cccc(Sc5cnc(N6CCC(C)(CN)CC6)cn5)c4Cl)cn3)CC2)c1 [Example 82, N-(3-((5-(4-(aminomethyl)-4-methylpiperidin-1-yl)pyrazin-2-yl)thio)-2-chlorophenyl)-6-(4-(2-(2-(((2S,4R)-1-((S)-2-(1-fluorocyclopropane-1-carboxamido)-3,3-dimethylbutanoyl)-4-hydroxypyrrolidine-2-carboxamido)methyl)-5-(4-methylthiazol-5-yl)phenoxy)ethyl)piperazin-1-yl)nicotinamide] |
| 48.7 | 97.1 | Cc1ncsc1-c1ccc(CNC(=O)[C@@H]2C[C@@H](O)CN2C(=O)[C@@H](NC(=O)C2(F)CC2)C(C)(C)C)c(OCCN2CCN(c3ncc(C(=O)Nc4cccc(Sc5cnc(N6CCC(C)(CN)CC6)cn5)c4Cl)cn3)CC2)c1 [Example 84, N-(3-((5-(4-(aminomethyl)-4-methylpiperidin-1-yl)pyrazin-2-yl)thio)-2-chlorophenyl)-2-(4-(2-(2-(((2S,4R)-1-((S)-2-(1-fluorocyclopropane-1-carboxamido)-3,3-dimethylbutanoyl)-4-hydroxypyrrolidine-2-carboxamido)methyl)-5-(4-methylthiazol-5-yl)phenoxy)ethyl)piperazin-1-yl)pyrimidine-5-carboxamide] |
| 73 | 97.5 | Cc1ncsc1-c1ccc(CNC(=O)[C@@H]2C[C@@H](O)CN2C(=O)[C@@H](NC(=O)C2(F)CC2)C(C)(C)C)c(OCCN2CCN(c3ccc(C(=O)Nc4cccc(Sc5cnc(N6CCC(C)(CN)CC6)cn5)c4Cl)nn3)CC2)c1 [Example 85, N-(3-((5-(4-(aminomethyl)-4-methylpiperidin-1-yl)pyrazin-2-yl)thio)-2-chlorophenyl)-6-(4-(2-(2-(((2S,4R)-1-((S)-2-(1-fluorocyclopropane-1-carboxamido)-3,3-dimethylbutanoyl)-4-hydroxypyrrolidine-2-carboxamido)methyl)-5-(4-methylthiazol-5-yl)phenoxy)ethyl)piperazin-1-yl)pyridazine-3-carboxamide] |
